IC50 data for 2 compounds are collected here from ChEMBL document CHEMBL1201862, “PubChem BioAssay data set” (2004).

The source made the active and inactive calls. Cut-off read from the data, not from the text of the source: actives have a measured IC50 and inactives only a lower limit.

The target of this assay is Envelope glycoprotein gp160 (Human immunodeficiency virus 1, UniProt Q6QLK5). Put plainly: inhibitors of HIV fusion peptide binding, primary screen, biochemical, uHTS, fluorescence dequenching (AID 1986).
Envelope glycoprotein gp160, sequence (Q6QLK5 whole entry, the tested form may be a part): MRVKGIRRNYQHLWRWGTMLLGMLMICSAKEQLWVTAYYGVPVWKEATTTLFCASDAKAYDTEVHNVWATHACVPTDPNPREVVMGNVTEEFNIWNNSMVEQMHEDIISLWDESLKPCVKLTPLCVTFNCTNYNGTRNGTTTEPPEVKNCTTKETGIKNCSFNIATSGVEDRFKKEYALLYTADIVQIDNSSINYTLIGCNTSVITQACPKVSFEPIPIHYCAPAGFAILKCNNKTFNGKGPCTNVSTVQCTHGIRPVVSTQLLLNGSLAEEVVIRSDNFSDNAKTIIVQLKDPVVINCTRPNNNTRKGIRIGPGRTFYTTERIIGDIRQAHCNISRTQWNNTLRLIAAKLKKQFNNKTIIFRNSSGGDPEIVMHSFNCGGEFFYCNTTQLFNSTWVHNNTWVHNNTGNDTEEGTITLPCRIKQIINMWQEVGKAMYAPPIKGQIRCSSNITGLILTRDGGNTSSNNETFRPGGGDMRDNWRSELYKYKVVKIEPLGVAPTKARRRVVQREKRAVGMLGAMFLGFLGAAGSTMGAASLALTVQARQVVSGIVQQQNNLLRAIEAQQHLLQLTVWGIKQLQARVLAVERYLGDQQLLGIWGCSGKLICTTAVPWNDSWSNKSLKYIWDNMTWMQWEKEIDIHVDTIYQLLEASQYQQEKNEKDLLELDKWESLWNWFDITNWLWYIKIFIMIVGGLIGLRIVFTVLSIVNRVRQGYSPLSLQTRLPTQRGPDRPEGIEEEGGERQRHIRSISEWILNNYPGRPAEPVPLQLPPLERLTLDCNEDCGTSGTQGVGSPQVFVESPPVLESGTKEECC

For `O=C(NN1C(=O)/C(=C/c2ccc(O)c([N+](=O)[O-])c2)SC1=S)c1ccccc1Cl`, the half-maximal inhibitory concentration (IC50) (as a rule, the concentration that gives 50% inhibition) is 28.2 µM (active). The result for `CC(C)(C)CC(C)(C)c1ccc(OCC(=O)N/N=C/c2ccc(S(=O)(=O)O)o2)cc1` reads 27.8 µM (active).
